Experiments:
β-amyloid peptide(1-40) = target: T1, β-amyloid peptide(1-40) (Homo sapiens, UniProt P05067); conditions: cited from earlier work
T1 construct: when incubated with β-amyloid peptide(1-40); (Park, Kim, Son, & Yang, 2009)

[1] = cited from earlier work
neurons = conditions: cited from earlier work
[2] = target: T2, β-2-microglobulin aggregates (Homo sapiens, UniProt P61769); assay: Citrate treatment of β-2-microglobulin aggregates (thioflavin T fluorescence microscopy); format: biochemical; conditions: 2 weeks, thioflavin T stain
T2 construct: purchased Lee Biosolutions, Maryland Heights, Mo
T2 sequence (P61769 21-119): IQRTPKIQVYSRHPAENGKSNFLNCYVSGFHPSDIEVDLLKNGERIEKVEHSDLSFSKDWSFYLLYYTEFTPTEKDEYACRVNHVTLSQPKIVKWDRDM
Protocol: (§1) In the following experiments, the concentration of thioflavin T was thirty micromolar in phosphate buffered saline (PBS), and the staining time was five minutes.
(§2) In the following experiments, an […] observer interpreted fluorescence. Interpretation of microscopic fluorescence intensity may be subject to bias. Staining times and washes were controlled.
One milliliter of β-2-microglobulin (Lee Biosolutions, Maryland Heights, Mo.) at a concentration of 1 mg/0.5 ml were mixed with two milliliters of 10 mM calcium chloride in normal saline at 37° C. for three weeks, and a precipitate formed. […] The precipitate was aspirated and stained with 10 microliters of thioflavin T, washed twice with phosphate bufferd saline (PBS), and each sample was observed under an epifluorescent microscope with B2 filter (excitation filter, 450-490 nm; barrier filter, 520 nm). (Table 1)

[3] = 280-310 milliosmoles per liter, pH 6-8, animal preparation; cited from earlier work
[4] = target: T3, amyloid β peptide(1-40) aggregates (Homo sapiens, UniProt P05067); assay: Citrate treatment of amyloid β peptide(1-40) aggregates (thioflavin T fluorescence microscopy); format: biochemical; conditions: 48 hours, 37° C.
T3 construct: amyloid β peptide(1-40) (Abcam, Cambridge, United Kingdom); purchased Abcam, Cambridge, United Kingdom
T3 sequence (P05067 672-711 limits assumed): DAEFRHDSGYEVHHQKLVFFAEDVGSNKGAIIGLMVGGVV
Protocol: as §1, §2
A precipitate formed and the sample was centrifuged at 1500 rpm for five minutes. […] Then, five microliters of thioflavin T were added to each sample, and after five minutes, the samples were centrifuged at 1500 rpm for five minutes and washed twice with PBS. Aggregates in the micro centrifuge tubes were aspirated and observed under an epifluorescent microscope with B2 filter. (Table 3)

alpha synuclein = alpha synuclein (Homo sapiens, UniProt P37840); conditions: 10 mM calcium chloride in PBS, 37° C., four weeks
Protocol: Five hundred micrograms of alpha synuclein (rPeptide, LLC, Athens, Ga.) was dissolved in 400 microliters of 10 mM calcium chloride in PBS and incubated at 37° C. for four weeks.

T1 sequence (P05067 672-711 limits assumed): as above

SMILES: O=C(O)CC(O)(CC(=O)O)C(=O)O [Citrate]
- Formation of amyloid-like aggregates (β-amyloid peptide(1-40)): inhibit formation of amyloid-like aggregates
- Blood brain barrier crossing ([1]; in vivo): freely crosses the blood brain barrier
- Cerebral spinal fluid to plasma concentration of citrate ([1]; in vivo): approximately two-three to one
- Average CSF concentration ([1]; normal volunteers): 0.18 mM
- Average plasma citrate concentration ([1]; normal volunteers): 0.09 mM
- CSF citrate concentration ([1]; patients with cerebrovascular disorders): ≤ 0.3 mM
- Protection of neurons from apoptotic effects of β-amyloid peptide(1-40) (neurons): protect neurons from the apoptotic effects

SMILES: O=C([O-])CC(O)(CC(=O)[O-])C(=O)[O-].[Na+].[Na+].[Na+] [Sodium citrate, sodium citrate]
- Presence of fluorescent fibrils ([2]; sodium citrate 0.01 mM): Present
- Presence of fluorescent fibrils ([2]; sodium citrate 0.1 mM): Present
- Presence of fluorescent fibrils ([2]; sodium citrate 10 mM): Absent
- Presence of fluorescent fibrils ([2]; sodium citrate 100 mM): Absent
- Presence of fluorescent fibrils ([2]; sodium citrate 1M): Present
- Effect on vertebral bone weight [3]: decreased vertebral bone weight
- Effect on weight of ligamentum flavum, dura mater, and spinal cord [3]: minimal effect
- Thioflavin T fluorescence ([4]; sodium citrate 0.01 mM in PBS): Present
- Thioflavin T fluorescence ([4]; sodium citrate 0.10 mM in PBS): Present
- Thioflavin T fluorescence ([4]; sodium citrate 1.00 mM in PBS): Minimally present
- Thioflavin T fluorescence ([4]; sodium citrate 10.00 mM in PBS): Absent

SMILES: [Ca+2].[Cl-].[Cl-] [calcium chloride]
- Precipitate formation (alpha synuclein): No precipitate formed

From patent US20180333379A1 (priority 2018, published 2018)
